{
  "source": "paper PMC6050662",
  "about": "“Lycorine inhibits glioblastoma multiforme growth through EGFR suppression” (Journal of Experimental & Clinical Cancer Research : CR, 2018)",
  "biological_target": "T1, EGFR (Homo sapiens, UniProt P00533)",
  "T1 construct": "GST-tagged EGFR (696–1022), intracellular kinase domain",
  "T1 sequence (P00533 696-1022)": "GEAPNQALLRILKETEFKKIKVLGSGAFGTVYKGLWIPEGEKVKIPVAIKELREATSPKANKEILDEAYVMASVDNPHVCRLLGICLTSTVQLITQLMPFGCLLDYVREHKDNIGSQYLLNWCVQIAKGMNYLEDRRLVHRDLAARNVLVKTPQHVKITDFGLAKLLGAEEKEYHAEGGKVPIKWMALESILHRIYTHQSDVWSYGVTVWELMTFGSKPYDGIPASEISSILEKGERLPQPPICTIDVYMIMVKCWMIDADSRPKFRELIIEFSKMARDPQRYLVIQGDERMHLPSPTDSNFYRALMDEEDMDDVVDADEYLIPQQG",
  "experiment": "SPR (Biacore T200, GST-EGFR captured by anti-GST on CM5 chip); also kinase assay (Kinase-Glo) IC50 about […]",
  "format": "binding",
  "data": [
    {"compound": "O[C@H]1[C@H]2c3cc4c(cc3CN3CCC(=C[C@@H]1O)[C@H]23)OCO4", "note": "[Lycorine]", "values": [
      {"measurement": "Kd", "value": "~3.6", "unit": "µM"}
    ]}
  ]
}
